Assay results reported in patent US9416154B2, “5′-substituted nucleoside derivatives and methods of use thereof for the treatment of viral diseases” (priority 2011, dated 2016).

Assays:
[1] = target: HCV NS5B RNA-dependent RNA polymerase (1b-BKΔ55) (Hepatitis C virus genotype 1b (isolate BK) (HCV), UniProt P26663); assay: HCV NS5B polymerase inhibition assay (radiolabeled nucleotide incorporation); type: biochemical; settings: 5 nM NS5B (1b-BKΔ55), [33P]-CTP incorporation, room temperature 1 hour
HCV NS5B RNA-dependent RNA polymerase (1b-BKΔ55), sequence (P26663 2420-2955): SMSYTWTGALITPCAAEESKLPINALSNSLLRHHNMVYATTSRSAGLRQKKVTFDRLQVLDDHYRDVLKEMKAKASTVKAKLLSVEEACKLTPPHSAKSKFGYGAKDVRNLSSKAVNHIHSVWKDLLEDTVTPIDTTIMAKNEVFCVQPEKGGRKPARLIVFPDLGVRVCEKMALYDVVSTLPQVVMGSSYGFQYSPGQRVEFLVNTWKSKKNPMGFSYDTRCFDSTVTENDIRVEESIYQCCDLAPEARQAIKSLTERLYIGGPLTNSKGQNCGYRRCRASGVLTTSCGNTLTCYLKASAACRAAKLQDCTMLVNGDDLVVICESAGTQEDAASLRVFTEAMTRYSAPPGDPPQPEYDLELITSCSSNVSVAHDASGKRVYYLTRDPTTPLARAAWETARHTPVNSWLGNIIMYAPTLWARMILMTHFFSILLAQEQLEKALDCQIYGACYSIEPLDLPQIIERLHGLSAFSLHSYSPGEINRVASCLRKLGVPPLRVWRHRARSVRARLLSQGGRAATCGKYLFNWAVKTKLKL
Description: The ability of the nucleoside triphosphate derivatives to inhibit the enzymatic activity of the HCV NS5B RNA-dependent RNA polymerase was measured in a radiolabeled nucleotide incorporation assay modified from the method described in International Publication No. WO2002/057287. Briefly, 50 μL reactions containing 20 mM HEPES (pH 7.3), 7.5 mM DTT, 20 units/mL RNasIN, 1 μM each of ATP, GTP, UTP and CTP, 20 μCi/mL [^33P]-CTP, 10 mM MgCl2, 60 mM NaCl, 100 μg/ml BSA, 0.021 μM DCoH heteropolymer RNA template and 5 nM NS5B (1b-BKΔ55) enzyme were incubated at room temperature for 1 hour. Assay was terminated by the addition of 500 mM EDTA (50 μL). The reaction mixture was transferred to a Millipore DE81 filter plate and the incorporation of labeled CTP was determined using Packard TopCount. Compound IC50 values were calculated from experiments with 10 serial 3-fold dilutions of the inhibitor in duplicate.

[2] = tested on: Huh 7 hepatoma cells containing the subgenomic HCV replicon; assay: Cytotoxicity (MTS assay or GAPDH RNA readout); type: cell-based
Description: The effect of the nucleoside derivatives on the proliferation and metabolism of Huh 7 hepatoma cells containing the subgenomic HCV replicon was measured using the MTS assay. Briefly, cells were seeded and dosed with compounds exactly as described in Example 13 above, for replicon EC50 determination. After a 3-day compound incubation period, the MTS assay was performed in accordance with the manufacturer's protocol for the CellTiter 96 Aqueous One Solution Cell Proliferation Assay (Promega, Catalog #G358). Alternatively, after a 3-day compound incubation, the amount of glyceraldehyde-3-phosphate dehydrogenase (GAPDH) RNA in replicon-containing Huh 7 cells was determined using qRT-PCR. CC50 values were derived from 10 serial 2-fold dilutions of the inhibitor in duplicate that yielded 50% inhibition of the MTS or GAPDH RNA readout by comparison with cells treated with vehicle control.

HCV replicon (1b) = assay: Cell-based HCV replicon assay; settings: replicon cells, 3-day incubation, replicon RNA by real time PCR (Taqman); read-out: 1b EC50
Description: To measure cell-based anti-HCV activity of selected compounds of the present invention, replicon cells were seeded at 5000 cells/well in 96-well collagen I-coated Nunc plates in the presence of the test compound. Various concentrations of test compound, typically in 10 serial 2-fold dilutions, were added to the assay mixture, with the starting concentration ranging from 250 μM to 1 μM. The final concentration of dimethylsulfoxide was 0.5%, fetal bovine serum was 5%, in the assay media. Cells were harvested on day 3 by the addition of 1× cell lysis buffer (Ambion cat #8721). The replicon RNA level was measured using real time PCR (Taqman assay). The amplicon was located in 5B. The PCR primers were: 5B.2F, ATGGACAGGCGCCCTGA (SEQ ID. NO. 1); 5B.2R, […] (SEQ ID. NO. 2); the probe sequence was FAM-labeled CACGCCATGCGCTGCGG (SEQ ID. NO. 3). GAPDH RNA was used as endogenous control and was amplified in the same reaction as NS5B (multiplex PCR) using primers and VIC-labeled probe recommended by the manufacturer (PE Applied Biosystem). The real-time RT-PCR reactions were run on ABI PRISM 7900HT Sequence Detection System using the following program: 48° C. for 30 minutes, 95° C. for 10 minutes, 40 cycles of 95° C. for 15 sec, 60° C. for 1 minute. The ΔCT values (CT5B-CTGAPDH) were plotted against the concentration of test compound and fitted to the sigmoid dose-response model using XLfit4 (MDL). EC50 was defined as the concentration of inhibitor necessary to achieve ΔCT=1 over the projected baseline; EC90 the concentration necessary to achieve ΔCT=3.2 over the baseline. Alternatively, to quantitate the absolute amount of replicon RNA, a standard curve was established by including serially diluted T7 transcripts of replicon RNA in the Taqman assay. All Taqman reagents were from PE Applied Biosystems. Such an assay procedure was described in detail in e.g. Malcolm et al., Antimicrobial Agents and Chemotherapy 50: 1013-1020 (2006).

Structure (SMILES)	IC50 [1]	CC50 [2]	EC50 (HCV replicon (1b))
CC(OP(=O)(O)OP(=O)(O)OP(=O)(O)O)[C@H]1O[C@@H](n2ccc3c(N)ncnc32)[C@](C)(F)[C@@H]1O (some centres unmarked) [Compound 15]	> 20 µM	–	–
C[C@@H](OP(=O)(O)OP(=O)(O)OP(=O)(O)O)[C@H]1O[C@@H](n2ccc3c(N)ncnc32)[C@](C)(O)[C@@H]1O [Compound 36]	65 µM	–	–
C[C@H](OP(=O)(O)OP(=O)(O)OP(=O)(O)O)[C@H]1O[C@@H](n2ccc3c(N)ncnc32)[C@](C)(O)[C@@H]1O [Compound 37]	40 µM	–	–
C[C@H](O)C1O[C@@H](n2ccc3c(N)ncnc32)[C@](C)(O)[C@@H]1O (some centres unmarked) [Compound 28]	–	> 100 µM	> 100 µM
